From patent US12077503B2, “Substituted cyclic amides and their use as herbicides” (FMC CORPORATION, priority 2015, dated 2024)

Key:
Assay type in all cases: in vivo
[1] = test system: barnyardgrass (Echinochloa crus-galli); test: Test G Pre-Emergence Protocol; conditions: Echinochloa crus-galli, pre-emergence, 312 h, evaluated after 13 days; for pest or weed control at 15.625 g/ha: 15.625 g ai/ha, read-out: Barnyard grass damage rating (100=total damage to plant; 0=no damage to plant); for pest or weed control at 62.5 g/ha: 62.5 g ai/ha, 100=total damage to plant, 0=no damage to plant, read-out: plant damage rating, Barnyardgrass; for pest or weed control at 250 g/ha: 250 g ai/ha, read-out: Barnyardgrass damage rating (100=total damage to plant; 0=no damage to plant)
How it was run: (§1)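 One day after sowing, pots are treated with a spray of test compound formulated in acetone/water 50:50 plus 0.5% Tween 20, giving 15.625, 62.5 or 250 g/ha. Evaluation on a 0–100 damage scale follows 13 days of glasshouse growth.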

corn (Zea mays) [2] = test: Test G Pre-Emergence Protocol; conditions: Zea mays, pre-emergence, 312 h, evaluated after 13 days; for plant injury at 15.625 g/ha: 15.625 g ai/ha; for plant injury at 15.625 g/ha / plant injury at 250 g/ha: read-out: Corn damage rating (100=total damage to plant; 0=no damage to plant); for plant injury at 62.5 g/ha: 62.5 g ai/ha, 100=total damage to plant, 0=no damage to plant, read-out: plant damage rating, Corn; for plant injury at 250 g/ha: 250 g ai/ha
How it was run: as §1

[3] = test system: giant foxtail (Setaria faberi); test: Test G Pre-Emergence Protocol; conditions: Setaria faberi, pre-emergence, 312 h, evaluated after 13 days; for pest or weed control at 15.625 g/ha: 15.625 g ai/ha; for pest or weed control at 15.625 g/ha / pest or weed control at 250 g/ha: read-out: Foxtail, Giant damage rating (100=total damage to plant; 0=no damage to plant); for pest or weed control at 62.5 g/ha: 62.5 g ai/ha, 100=total damage to plant, 0=no damage to plant, read-out: plant damage rating, Foxtail, Giant; for pest or weed control at 250 g/ha: 250 g ai/ha
How it was run: as §1

[4] = test system: ivy-leaved morning glory (Ipomoea hederacea); test: Test G Pre-Emergence Protocol; conditions: Ipomoea, pre-emergence, 312 h, evaluated after 13 days; for pest or weed control at 62.5 g/ha: 62.5 g ai/ha, 100=total damage to plant, 0=no damage to plant, read-out: plant damage rating, Morningglory, Ivy-leaved; for pest or weed control at 250 g/ha: 250 g ai/ha, read-out: Morningglory, Ivy-leaved damage rating (100=total damage to plant; 0=no damage to plant)
How it was run: as §1

[5] = test system: redroot pigweed (Amaranthus retroflexus); test: Test G Pre-Emergence Protocol; conditions: Amaranthus retroflexus, pre-emergence, 312 h, evaluated after 13 days; for pest or weed control at 15.625 g/ha: 15.625 g ai/ha; for pest or weed control at 15.625 g/ha / pest or weed control at 250 g/ha: read-out: Pigweed, Redroot damage rating (100=total damage to plant; 0=no damage to plant); for pest or weed control at 62.5 g/ha: 62.5 g ai/ha, 100=total damage to plant, 0=no damage to plant, read-out: plant damage rating, Pigweed, Redroot; for pest or weed control at 250 g/ha: 250 g ai/ha
How it was run: as §1

[6] = test system: velvetleaf (Abutilon theophrasti); test: Test G Pre-Emergence Protocol; conditions: Abutilon theophrasti, pre-emergence, 312 h, evaluated after 13 days; for pest or weed control at 15.625 g/ha: 15.625 g ai/ha; for pest or weed control at 15.625 g/ha / pest or weed control at 250 g/ha: read-out: Velvetleaf damage rating (100=total damage to plant; 0=no damage to plant); for pest or weed control at 62.5 g/ha: 62.5 g ai/ha, 100=total damage to plant, 0=no damage to plant, read-out: plant damage rating, Velvetleaf; for pest or weed control at 250 g/ha: 250 g ai/ha
How it was run: as §1

[7] = test system: barnyardgrass (Echinochloa crus-galli); test: Test G Post-Emergence Protocol; conditions: Echinochloa crus-galli, post-emergence, 312 h; for pest or weed control at 15.625 g/ha: 15.625 g ai/ha, evaluated after 13 days (100=total damage to plant; 0=no damage to plant), read-out: Barnyardgrass damage rating; for pest or weed control at 62.5 g/ha: 62.5 g ai/ha, read-out: Barnyardgrass damage rating (100=total damage to plant; 0=no damage to plant); for pest or weed control at 62.5 g/ha / pest or weed control at 250 g/ha: evaluated after 13 days; for pest or weed control at 250 g/ha: 250 g ai/ha, read-out: damage to plant, Barnyardgrass (100=total damage to plant; 0=no damage to plant)
How it was run: (§2)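 Eight days post-sowing, plants received a spray of test compound (acetone/water 50:50, 0.5% Tween 20) at 15.625, 62.5 or 250 g/ha. Glasshouse regime thereafter: 24/16 °C, 14 h light, 65% humidity. Assessment after 13 days on a 0–100 damage scale.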

corn (Zea mays) [8] = test: Test G Post-Emergence Protocol; conditions: Zea mays, post-emergence, 312 h; for plant injury at 15.625 g/ha: 15.625 g ai/ha, evaluated after 13 days (100=total damage to plant; 0=no damage to plant), read-out: Corn damage rating; for plant injury at 62.5 g/ha: 62.5 g ai/ha, read-out: Corn damage rating (100=total damage to plant; 0=no damage to plant); for plant injury at 62.5 g/ha / plant injury at 250 g/ha: evaluated after 13 days; for plant injury at 250 g/ha: 250 g ai/ha, read-out: damage to plant, Corn (100=total damage to plant; 0=no damage to plant)
How it was run: as §2

[9] = test system: giant foxtail (Setaria faberi); test: Test G Post-Emergence Protocol; conditions: Setaria faberi, post-emergence, 312 h; for pest or weed control at 15.625 g/ha: 15.625 g ai/ha, evaluated after 13 days (100=total damage to plant; 0=no damage to plant), read-out: Foxtail, Giant damage rating; for pest or weed control at 62.5 g/ha: 62.5 g ai/ha, read-out: Foxtail, Giant damage rating (100=total damage to plant; 0=no damage to plant); for pest or weed control at 62.5 g/ha / pest or weed control at 250 g/ha: evaluated after 13 days; for pest or weed control at 250 g/ha: 250 g ai/ha, read-out: damage to plant, Foxtail, Giant (100=total damage to plant; 0=no damage to plant)
How it was run: as §2

[10] = test system: ivy-leaved morning glory (Ipomoea hederacea); test: Test G Post-Emergence Protocol; conditions: Ipomoea, post-emergence, 312 h; for pest or weed control at 15.625 g/ha: 15.625 g ai/ha, evaluated after 13 days (100=total damage to plant; 0=no damage to plant), read-out: Morningglory, Ivy-leaved damage rating; for pest or weed control at 62.5 g/ha: 62.5 g ai/ha, read-out: Morningglory, Ivy-leaved damage rating (100=total damage to plant; 0=no damage to plant); for pest or weed control at 62.5 g/ha / pest or weed control at 250 g/ha: evaluated after 13 days; for pest or weed control at 250 g/ha: 250 g ai/ha, read-out: damage to plant, Morningglory, Ivy-leaved (100=total damage to plant; 0=no damage to plant)
How it was run: as §2

[11] = test system: redroot pigweed (Amaranthus retroflexus); test: Test G Post-Emergence Protocol; conditions: Amaranthus retroflexus, post-emergence, 312 h; for pest or weed control at 15.625 g/ha: 15.625 g ai/ha, evaluated after 13 days (100=total damage to plant; 0=no damage to plant), read-out: Pigweed, Redroot damage rating; for pest or weed control at 62.5 g/ha: 62.5 g ai/ha, read-out: Pigweed, Redroot damage rating (100=total damage to plant; 0=no damage to plant); for pest or weed control at 62.5 g/ha / pest or weed control at 250 g/ha: evaluated after 13 days; for pest or weed control at 250 g/ha: 250 g ai/ha, read-out: damage to plant, Pigweed, Redroot (100=total damage to plant; 0=no damage to plant)
How it was run: as §2

[12] = test system: velvetleaf (Abutilon theophrasti); test: Test G Post-Emergence Protocol; conditions: Abutilon theophrasti, post-emergence, 312 h; for pest or weed control at 15.625 g/ha: 15.625 g ai/ha, evaluated after 13 days (100=total damage to plant; 0=no damage to plant), read-out: Velvetleaf damage rating; for pest or weed control at 62.5 g/ha: 62.5 g ai/ha, read-out: Velvetleaf damage rating (100=total damage to plant; 0=no damage to plant); for pest or weed control at 62.5 g/ha / pest or weed control at 250 g/ha: evaluated after 13 days; for pest or weed control at 250 g/ha: 250 g ai/ha, read-out: damage to plant, Velvetleaf (100=total damage to plant; 0=no damage to plant)
How it was run: as §2

SMILES	pest or weed control at 15.625 g/ha [1]	pest or weed control at 62.5 g/ha [1]	pest or weed control at 250 g/ha [1]	plant injury at 15.625 g/ha (corn (Zea mays) [2])	plant injury at 62.5 g/ha (corn (Zea mays) [2])	plant injury at 250 g/ha (corn (Zea mays) [2])	pest or weed control at 250 g/ha [3]	pest or weed control at 62.5 g/ha [4]	pest or weed control at 250 g/ha [4]	pest or weed control at 15.625 g/ha [5]	pest or weed control at 62.5 g/ha [5]	pest or weed control at 250 g/ha [5]	pest or weed control at 15.625 g/ha [6]	pest or weed control at 62.5 g/ha [6]	pest or weed control at 250 g/ha [6]	pest or weed control at 15.625 g/ha [7]	pest or weed control at 62.5 g/ha [7]	pest or weed control at 250 g/ha [7]	plant injury at 15.625 g/ha (corn (Zea mays) [8])	plant injury at 62.5 g/ha (corn (Zea mays) [8])	further results
Cc1cc(NC(=O)[C@@H]2C(=O)N(C)C[C@H]2c2ccc(C(F)(F)F)cc2)sn1 (racemic) [Compound 1560]	0%	0%	10%	0%	0%	10%	10%	0%	0%	0%	0%	0%	0%	0%	0%	0%	0%	20%	0%	0%	pest or weed control at 15.625 g/ha [3]: 0%; pest or weed control at 62.5 g/ha [3]: 0%; pest or weed control at 15.625 g/ha ([4]; 15.625 g ai/ha, read-out: Morning-glory, Ivy-leaved damage rating (100=total damage to plant; 0=no damage to plant)): 0%; plant injury at 250 g/ha (corn (Zea mays) [8]): 0%; pest or weed control at 15.625 g/ha [9]: 0%; pest or weed control at 62.5 g/ha [9]: 0%; pest or weed control at 250 g/ha [9]: 20%; pest or weed control at 15.625 g/ha [10]: 0%; pest or weed control at 62.5 g/ha [10]: 0%; pest or weed control at 250 g/ha [10]: 0%; pest or weed control at 15.625 g/ha [11]: 0%; pest or weed control at 62.5 g/ha [11]: 0%; pest or weed control at 250 g/ha [11]: 20%; pest or weed control at 15.625 g/ha [12]: 0%; pest or weed control at 62.5 g/ha [12]: 0%; pest or weed control at 250 g/ha [12]: 10%
CN1C[C@@H](c2ccc(C(F)(F)F)cc2)[C@H](C(=O)Nc2ccc(Cl)nn2)C1=O (racemic) [Compound 1561]	30%	50%	80%	10%	0%	20%	70%	0%	20%	0%	20%	30%	0%	0%	10%	0%	20%	50%	0%	0%	pest or weed control at 15.625 g/ha [3]: 30%; pest or weed control at 62.5 g/ha [3]: 60%; plant injury at 250 g/ha (corn (Zea mays) [8]): 50%; pest or weed control at 15.625 g/ha [9]: 0%; pest or weed control at 62.5 g/ha [9]: 10%; pest or weed control at 250 g/ha [9]: 60%; pest or weed control at 15.625 g/ha [10]: 0%; pest or weed control at 62.5 g/ha [10]: 10%; pest or weed control at 250 g/ha [10]: 60%; pest or weed control at 15.625 g/ha [11]: 0%; pest or weed control at 62.5 g/ha [11]: 20%; pest or weed control at 250 g/ha [11]: 30%; pest or weed control at 15.625 g/ha [12]: 0%; pest or weed control at 62.5 g/ha [12]: 40%; pest or weed control at 250 g/ha [12]: 20%
CN1C[C@@H](c2ccc(C(F)(F)F)cc2)[C@H](C(=O)Nc2nnc[nH]2)C1=O (racemic) [Compound 1562]	0%	0%	20%	0%	0%	0%	30%	0%	0%	0%	0%	0%	0%	0%	0%	0%	0%	20%	0%	10%	plant injury at 250 g/ha (corn (Zea mays) [8]): 0%; pest or weed control at 15.625 g/ha [9]: 0%; pest or weed control at 62.5 g/ha [9]: 0%; pest or weed control at 250 g/ha [9]: 20%; pest or weed control at 15.625 g/ha [10]: 0%; pest or weed control at 62.5 g/ha [10]: 0%; pest or weed control at 250 g/ha [10]: 0%; pest or weed control at 15.625 g/ha [11]: 0%; pest or weed control at 62.5 g/ha [11]: 10%; pest or weed control at 250 g/ha [11]: 20%; pest or weed control at 15.625 g/ha [12]: 0%; pest or weed control at 62.5 g/ha [12]: 0%; pest or weed control at 250 g/ha [12]: 0%
